Patent US20250114345A1, “COMPOUNDS AND COMPOSITIONS AS CBP/P300 DEGRADERS AND USES THEREOF” (Oncopia Therapeutics, Inc. d/b/a/ SK Life Science Labs, priority 2023, published 2025)

Target: T1, p300 (Homo sapiens, UniProt Q09472)
T1 construct: host or cells: A549 P300 HiBit cells
Experiment: P300 degradation, HiBit technology in A549 P300 HiBit cells (2 h)
Format: cell-based
Settings: 2 hrs post treatment; for Dmax: A549, A549 P300 HiBit cells; for DC50: A549 P300 HiBit cells
Experimental: p300 and CBP degradation potency and Dmax were determined using in cell western (ICW) assay technology in H1299 cells or HiBit technology in A549 HiBit cells.
A549 P300 HiBit and A549 CBP HiBit cells were plated in separate 384-well, TC treated, white-opaque, flat-bottomed microplate. Cells were plated at a cell density of 0.2×10^4 cells per well in assay media comprised of F-12K, 10% heat inactivated FBS, and 1% penicillin/streptomycin. Assay microplates containing HiBit cells were placed in a 37° C., 5% CO2, tissue culture incubator and left to equilibrate overnight. The next day cells were treated with serial dilutions of test compound made up of 10 mM stock solutions in DMSO. 384-Well plates containing treated cells were then placed back into a 37° C., 5% CO2, tissue culture incubator. Assay microplates containing A549 P300 HiBit cells were incubated for 2 hrs post treatment before P300 destruction was assessed, while microplates containing A549 CBP HiBit cells were incubated for 24 hrs post treatment before CBP destruction was determined. On the day of each assay time point, microplates were removed from the tissue culture incubator and prepared HiBit Lytic detection buffer (Promega, cat #N3O40) was added to each plate. Plates were covered with aluminum foil and incubated for ten minutes at room temperature on an orbital shaker. After incubation, luminescent signal of each plate was measured using the Envision instrument (Perkin Elmer).

T1 sequence (Q09472 whole entry): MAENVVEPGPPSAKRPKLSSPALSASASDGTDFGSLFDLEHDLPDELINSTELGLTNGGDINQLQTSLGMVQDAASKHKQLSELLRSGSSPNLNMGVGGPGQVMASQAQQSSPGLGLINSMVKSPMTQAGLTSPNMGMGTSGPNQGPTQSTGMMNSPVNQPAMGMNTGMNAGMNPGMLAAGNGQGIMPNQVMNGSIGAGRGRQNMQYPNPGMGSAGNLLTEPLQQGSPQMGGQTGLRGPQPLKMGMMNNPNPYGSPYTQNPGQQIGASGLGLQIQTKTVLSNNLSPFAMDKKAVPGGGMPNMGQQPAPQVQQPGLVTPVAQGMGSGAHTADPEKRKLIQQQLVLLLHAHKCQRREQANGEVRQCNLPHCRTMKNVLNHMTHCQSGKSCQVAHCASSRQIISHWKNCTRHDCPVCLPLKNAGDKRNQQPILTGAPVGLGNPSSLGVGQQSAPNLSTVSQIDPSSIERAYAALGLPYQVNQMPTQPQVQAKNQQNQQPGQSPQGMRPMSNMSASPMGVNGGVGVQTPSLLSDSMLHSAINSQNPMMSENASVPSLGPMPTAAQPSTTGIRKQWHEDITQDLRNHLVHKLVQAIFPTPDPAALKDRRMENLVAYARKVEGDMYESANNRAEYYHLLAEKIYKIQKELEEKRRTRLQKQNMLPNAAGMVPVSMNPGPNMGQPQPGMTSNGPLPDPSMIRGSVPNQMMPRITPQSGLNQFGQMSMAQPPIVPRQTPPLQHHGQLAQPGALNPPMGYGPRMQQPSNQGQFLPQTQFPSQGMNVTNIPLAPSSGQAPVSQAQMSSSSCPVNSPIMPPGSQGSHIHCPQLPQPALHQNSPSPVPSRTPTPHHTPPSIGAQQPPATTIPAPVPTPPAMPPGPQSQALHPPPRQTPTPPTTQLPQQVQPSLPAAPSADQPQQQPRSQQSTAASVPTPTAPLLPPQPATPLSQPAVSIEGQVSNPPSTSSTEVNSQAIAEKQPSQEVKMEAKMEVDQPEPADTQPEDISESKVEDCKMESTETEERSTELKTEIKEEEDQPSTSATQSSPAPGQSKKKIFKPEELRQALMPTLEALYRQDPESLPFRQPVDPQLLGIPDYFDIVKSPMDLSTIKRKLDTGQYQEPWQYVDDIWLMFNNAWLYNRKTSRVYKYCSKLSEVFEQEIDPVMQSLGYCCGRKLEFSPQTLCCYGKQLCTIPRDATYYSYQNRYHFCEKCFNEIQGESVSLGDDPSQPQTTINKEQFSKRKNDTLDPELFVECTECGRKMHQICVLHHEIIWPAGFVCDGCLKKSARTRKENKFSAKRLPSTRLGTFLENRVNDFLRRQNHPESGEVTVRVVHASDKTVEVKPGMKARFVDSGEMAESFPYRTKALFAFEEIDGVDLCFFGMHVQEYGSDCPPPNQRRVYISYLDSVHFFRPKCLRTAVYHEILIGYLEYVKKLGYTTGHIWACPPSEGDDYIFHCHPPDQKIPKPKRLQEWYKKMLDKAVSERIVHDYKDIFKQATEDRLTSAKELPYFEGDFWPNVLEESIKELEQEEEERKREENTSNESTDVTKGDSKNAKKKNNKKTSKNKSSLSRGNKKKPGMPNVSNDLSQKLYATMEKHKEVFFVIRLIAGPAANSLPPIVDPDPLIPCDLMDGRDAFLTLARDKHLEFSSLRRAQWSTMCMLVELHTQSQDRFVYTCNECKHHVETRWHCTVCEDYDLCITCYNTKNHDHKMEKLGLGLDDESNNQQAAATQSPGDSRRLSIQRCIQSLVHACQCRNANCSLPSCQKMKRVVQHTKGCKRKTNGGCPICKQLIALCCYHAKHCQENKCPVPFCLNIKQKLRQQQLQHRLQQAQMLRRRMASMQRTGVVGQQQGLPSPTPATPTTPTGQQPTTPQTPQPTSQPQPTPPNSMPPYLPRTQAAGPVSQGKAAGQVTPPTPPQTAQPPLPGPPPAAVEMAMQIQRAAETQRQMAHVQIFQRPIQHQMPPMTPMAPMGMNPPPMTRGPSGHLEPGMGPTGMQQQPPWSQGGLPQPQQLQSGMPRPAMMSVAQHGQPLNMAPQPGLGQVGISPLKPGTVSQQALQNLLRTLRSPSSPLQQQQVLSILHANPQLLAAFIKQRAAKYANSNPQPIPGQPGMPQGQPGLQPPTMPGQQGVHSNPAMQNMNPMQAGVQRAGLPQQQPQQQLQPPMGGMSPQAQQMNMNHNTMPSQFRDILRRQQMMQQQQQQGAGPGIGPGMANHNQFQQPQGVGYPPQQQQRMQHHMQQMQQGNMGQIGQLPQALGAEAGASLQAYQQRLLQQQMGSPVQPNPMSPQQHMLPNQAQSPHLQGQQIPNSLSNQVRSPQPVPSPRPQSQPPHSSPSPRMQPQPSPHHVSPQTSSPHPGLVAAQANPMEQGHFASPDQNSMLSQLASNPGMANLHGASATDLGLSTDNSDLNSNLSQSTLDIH

SMILES	Dmax [%]	DC50 [nM]
COc1nn(C2CCC(=O)NC2=O)c2cc(C#CCNC(=O)c3ccc(-c4cc5cccc(-c6cc(C(C)C)c7c(c6)n(C)c(=O)n7C)c5cn4)cn3)ccc12 (stereo not drawn) [Example A4, N-(3-(1-(2,6-Dioxopiperidin-3-yl)-3-methoxy-1H-indazol-6-yl)prop-2-yn-1-yl)-5-(8-(7-isopropyl-1,3-dimethyl-2-oxo-2,3-dihydro-1H-benzo[d]imidazol-5-yl)isoquinolin-3-yl)picolinamide]	> 80	10 to 99
CC(C)c1cc(-c2cccc3cc(-c4ccc(C(=O)NCC#Cc5cc6c(cn5)cnn6C5CCC(=O)NC5=O)nc4)ncc23)cc2c1n(C)c(=O)n2C (stereo not drawn) [Example A6, N-(3-(1-(2,6-Dioxopiperidin-3-yl)-1H-pyrazolo[4,3-c]pyridin-6-yl)prop-2-yn-1-yl)-5-(8-(7-isopropyl-1,3-dimethyl-2-oxo-2,3-dihydro-1H-benzo[d]imidazol-5-yl)isoquinolin-3-yl)picolinamide]	60 to 79	1 to 9.9
CC(C)c1cc(-c2cccc3cc(-c4ccc(C(=O)NCC#Cc5ccc6c(C#N)nn(C7CCC(=O)NC7=O)c6c5)nc4)ncc23)cc2c1n(C)c(=O)n2C (stereo not drawn) [Example A7, N-(3-(3-Cyano-1-(2,6-dioxopiperidin-3-yl)-1H-indazol-6-yl)prop-2-yn-1-yl)-5-(8-(7-isopropyl-1,3-dimethyl-2-oxo-2,3-dihydro-1H-benzo[d]imidazol-5-yl)isoquinolin-3-yl)picolinamide]	> 80	10 to 99
Cc1cc2cnn(C3CCC(=O)NC3=O)c2cc1C#CCNC(=O)c1ccc(-c2cc3cccc(-c4cc(C(C)C)c5c(c4)n(C)c(=O)n5C)c3cn2)cn1 (stereo not drawn) [Example A8, N-(3-(1-(2,6-Dioxopiperidin-3-yl)-5-methyl-1H-indazol-6-yl)prop-2-yn-1-yl)-5-(8-(7-isopropyl-1,3-dimethyl-2-oxo-2,3-dihydro-1H-benzo[d]imidazol-5-yl)isoquinolin-3-yl)picolinamide]	60 to 79	10 to 99
CC(C)c1cc(-c2cccc3cc(-c4ccc(C(=O)NCC#Cc5cc(N(C)C)c6cnn(C7CCC(=O)NC7=O)c6c5)nc4)ncc23)cc2c1n(C)c(=O)n2C (stereo not drawn) [Example A9, N-(3-(4-(Dimethylamino)-1-(2,6-dioxopiperidin-3-yl)-1H-indazol-6-yl)prop-2-yn-1-yl)-5-(8-(7-isopropyl-1,3-dimethyl-2-oxo-2,3-dihydro-1H-benzo[d]imidazol-5-yl)isoquinolin-3-yl)picolinamide]	60 to 79	10 to 99
CC(C)c1cc(-c2cccc3cc(-c4ccc(C(=O)NCC#Cc5ccc6cnn(C7CCC(=O)NC7=O)c6n5)nc4)ncc23)cc2c1n(C)c(=O)n2C (stereo not drawn) [Example A12, N-(3-(1-(2,6-Dioxopiperidin-3-yl)-1H-pyrazolo[3,4-b]pyridin-6-yl)prop-2-yn-1-yl)-5-(8-(7-isopropyl-1,3-dimethyl-2-oxo-2,3-dihydro-1H-benzo[d]imidazol-5-yl)isoquinolin-3-yl)picolinamide]	20 to 39	10 to 99
CC(C)c1cc(-c2cccc3cc(-c4ccc(C(=O)NCC#Cc5cnc6ccn(C7CCC(=O)NC7=O)c6c5)nc4)ncc23)cc2c1n(C)c(=O)n2C (stereo not drawn) [Example A13, N-(3-(1-(2,6-Dioxopiperidin-3-yl)-1H-pyrrolo[3,2-b]pyridin-6-yl)prop-2-yn-1-yl)-5-(8-(7-isopropyl-1,3-dimethyl-2-oxo-2,3-dihydro-1H-benzo[d]imidazol-5-yl)isoquinolin-3-yl)picolinamide]	> 80	1 to 9.9
CC(C)c1cc(-c2cccc3cc(-c4ccc(C(=O)NCC#Cc5ccc6c(c5)nnn6C5CCC(=O)NC5=O)nc4)ncc23)cc2c1n(C)c(=O)n2C (stereo not drawn) [Example A17, N-(3-(1-(2,6-Dioxopiperidin-3-yl)-1H-benzo[d][1,2,3]triazol-5-yl)prop-2-yn-1-yl)-5-(8-(7-isopropyl-1,3-dimethyl-2-oxo-2,3-dihydro-1H-benzo[d]imidazol-5-yl)isoquinolin-3-yl)picolinamide]	< 20	> 1000
CC(C)c1cc(-c2cccc3cc(-c4ccc(C(=O)NCC#Cc5ccc6c(C#N)cn(C7CCC(=O)NC7=O)c6c5)nc4)ncc23)cc2c1n(C)c(=O)n2C (stereo not drawn) [Example A19, N-(3-(3-Cyano-1-(2,6-dioxopiperidin-3-yl)-1H-indol-6-yl)prop-2-yn-1-yl)-5-(8-(7-isopropyl-1,3-dimethyl-2-oxo-2,3-dihydro-1H-benzo[d]imidazol-5-yl)isoquinolin-3-yl)picolinamide]	60 to 79	100 to 999
CC(C)c1cc(-c2cccc3cc(-c4ccc(C(=O)NCC#Cc5cnc6cnn(C7CCC(=O)NC7=O)c6c5)nc4)ncc23)cc2c1n(C)c(=O)n2C (stereo not drawn) [Example A20, N-(3-(1-(2,6-Dioxopiperidin-3-yl)-1H-pyrazolo[4,3-b]pyridin-6-yl)prop-2-yn-1-yl)-5-(8-(7-isopropyl-1,3-dimethyl-2-oxo-2,3-dihydro-1H-benzo[d]imidazol-5-yl)isoquinolin-3-yl)picolinamide]	60 to 79	1 to 9.9
CC(C)c1cc(-c2cccc3cc(-c4ccc(C(=O)NCC#Cc5cc(C#N)c6cnn(C7CCC(=O)NC7=O)c6c5)nc4)ncc23)cc2c1n(C)c(=O)n2C (stereo not drawn) [Example A21, N-(3-(4-Cyano-1-(2,6-dioxopiperidin-3-yl)-1H-indazol-6-yl)prop-2-yn-1-yl)-5-(8-(7-isopropyl-1,3-dimethyl-2-oxo-2,3-dihydro-1H-benzo[d]imidazol-5-yl)isoquinolin-3-yl)picolinamide]	60 to 79	100 to 999
CC(C)c1cc(-c2cccc3cc(-c4ccc(C(=O)NCC#Cc5cc6c(ccn6C6CCC(=O)NC6=O)cn5)nc4)ncc23)cc2c1n(C)c(=O)n2C (stereo not drawn) [Example A22, N-(3-(1-(2,6-Dioxopiperidin-3-yl)-1H-pyrrolo[3,2-c]pyridin-6-yl)prop-2-yn-1-yl)-5-(8-(7-isopropyl-1,3-dimethyl-2-oxo-2,3-dihydro-1H-benzo[d]imidazol-5-yl)isoquinolin-3-yl)picolinamide]	20 to 39	10 to 99
COc1cc(C#CCNC(=O)c2ccc(-c3cc4cccc(-c5cc(C(C)C)c6c(c5)n(C)c(=O)n6C)c4cn3)cn2)cc2c1cnn2C1CCC(=O)NC1=O (stereo not drawn) [Example A26, N-(3-(1-(2,6-Dioxopiperidin-3-yl)-4-methoxy-1H-indazol-6-yl)prop-2-yn-1-yl)-5-(8-(7-isopropyl-1,3-dimethyl-2-oxo-2,3-dihydro-1H-benzo[d]imidazol-5-yl)isoquinolin-3-yl)picolinamide]	60 to 79	10 to 99
COc1cc2cnn(C3CCC(=O)NC3=O)c2cc1C#CCNC(=O)c1ccc(-c2cc3cccc(-c4cc(C(C)C)c5c(c4)n(C)c(=O)n5C)c3cn2)cn1 (stereo not drawn) [Example A27, N-(3-(1-(2,6-Dioxopiperidin-3-yl)-5-methoxy-1H-indazol-6-yl)prop-2-yn-1-yl)-5-(8-(7-isopropyl-1,3-dimethyl-2-oxo-2,3-dihydro-1H-benzo[d]imidazol-5-yl)isoquinolin-3-yl)picolinamide]	60 to 79	1 to 9.9
CC(C)c1cc(-c2cccc3cc(-c4ccc(C(=O)NCC#Cc5ccc6c(CN(C)C)nn(C7CCC(=O)NC7=O)c6c5)nc4)ncc23)cc2c1n(C)c(=O)n2C (stereo not drawn) [Example A28, N-(3-(3-((Dimethylamino)methyl)-1-(2,6-dioxopiperidin-3-yl)-1H-indazol-6-yl)prop-2-yn-1-yl)-5-(8-(7-isopropyl-1,3-dimethyl-2-oxo-2,3-dihydro-1H-benzo[d]imidazol-5-yl)isoquinolin-3-yl)picolinamide]	60 to 79	1 to 9.9
COc1cc(-c2cc3cccc(-c4cc(C(C)C)c5c(c4)n(C)c(=O)n5C)c3cn2)cnc1C(=O)NCC#Cc1ccc2c(c1)c(C1CCC(=O)NC1=O)nn2C (stereo not drawn) [Example A30, N-(3-(3-(2,6-Dioxopiperidin-3-yl)-1-methyl-1H-indazol-5-yl)prop-2-yn-1-yl)-5-(8-(7-isopropyl-1,3-dimethyl-2-oxo-2,3-dihydro-1H-benzo[d]imidazol-5-yl)isoquinolin-3-yl)-3-methoxypicolinamide]	> 80	1 to 9.9
CC(C)c1cc(-c2cccc3cc(-c4ccc(C(=O)NCC#Cc5ccc6c(C(F)F)nn(C7CCC(=O)NC7=O)c6c5)nc4)ncc23)cc2c1n(C)c(=O)n2C (stereo not drawn) [Example A31, N-(3-(3-(Difluoromethyl)-1-(2,6-dioxopiperidin-3-yl)-1H-indazol-6-yl)prop-2-yn-1-yl)-5-(8-(7-isopropyl-1,3-dimethyl-2-oxo-2,3-dihydro-1H-benzo[d]imidazol-5-yl)isoquinolin-3-yl)picolinamide]	20 to 39	1 to 9.9
CC(C)c1cc(-c2cccc3cc(-c4ccc(C(=O)NCC#Cc5cc6c(c(NC7CCC(=O)NC7=O)c5)OCC6)nc4)ncc23)cc2c1n(C)c(=O)n2C (stereo not drawn) [Example A32, N-(3-(7-((2,6-Dioxopiperidin-3-yl)amino)-2,3-dihydrobenzofuran-5-yl)prop-2-yn-1-yl)-5-(8-(7-isopropyl-1,3-dimethyl-2-oxo-2,3-dihydro-1H-benzo[d]imidazol-5-yl)isoquinolin-3-yl)picolinamide]	> 80	1 to 9.9
